Consider two compounds from paper PMC7435853, “L-Malate (−2) Protonation State is Required for Efficient Decarboxylation to L-Lactate by the Malolactic Enzyme of Oenococcus oeni” (Molecules, 2020).

The experiment has as its target T1, malolactic enzyme (MLE) (Oenococcus oeni, UniProt Q04DQ3).
T1 construct: gene OEOE_1564; full-length gene (1626 bp), His-tagged (HisTrap) from pET vector (text says pET28a and pET21a), E. coli BL21(DE3); reported dimer
T1 sequence (Q04DQ3 1-541): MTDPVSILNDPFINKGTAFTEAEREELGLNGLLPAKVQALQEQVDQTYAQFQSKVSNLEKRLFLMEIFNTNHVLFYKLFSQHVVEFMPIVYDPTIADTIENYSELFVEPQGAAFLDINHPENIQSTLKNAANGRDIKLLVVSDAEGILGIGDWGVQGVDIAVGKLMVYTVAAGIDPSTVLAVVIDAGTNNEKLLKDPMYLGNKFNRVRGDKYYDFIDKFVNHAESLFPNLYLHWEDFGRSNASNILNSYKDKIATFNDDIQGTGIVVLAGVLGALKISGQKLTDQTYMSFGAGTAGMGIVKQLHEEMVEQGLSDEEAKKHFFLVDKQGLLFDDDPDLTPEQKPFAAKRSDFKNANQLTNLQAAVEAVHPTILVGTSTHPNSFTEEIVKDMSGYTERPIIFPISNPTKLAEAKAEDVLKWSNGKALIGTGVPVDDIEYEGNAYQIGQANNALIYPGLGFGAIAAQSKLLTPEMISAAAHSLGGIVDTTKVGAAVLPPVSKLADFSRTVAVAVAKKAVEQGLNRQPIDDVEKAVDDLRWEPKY
Kind of experiment: isothermal titration calorimetry. It is filed as binding. The text has this: isothermal titration calorimetry on malolactic enzyme (MLE)
(In general: Isothermal titration calorimetry measures the heat released or taken up as one component is titrated into another.)

The compound `O=C(O)C[C@H](O)C(=O)O` [MAL^2−, L-malate (−2)] had a Kd of 1.29 µM.

Compound `O=C(O)C[C@H](O)C(=O)O` [MAL^−, L-malate (−1)] showed a Kd of 3.19 µM.

The Kd is the constant that tells how readily two partners part at equilibrium. Read a low Kd as tighter binding.
